Laboratory results taken from patent US5904929A, “Acylated cyclodextrin-containing pharmaceutical composition” (Janssen Pharmaceutica, N.V., priority 1997, dated 1999).

What was measured:
[1] = J. Pharm. Pharmacol. 1994, 46: 714-717; cited from earlier work
[2] = Detaching force of films, probe tack tester (Example 1); assay type: physicochemical; conditions: films on polyethylene terephthalate; compared with HPC, HPMC and PHEMA; probe tack tester (FIG. 1)
Description: Pervaleryl-β-cyclodextrin (TV-β-CyD)-containing absolute ethanol solution (concentration: 150 mg/ml) was added dropwise onto a backing membrane (polyethylene terephthalate film) using a microsyringe, and allowed to stand at 25° C. for 24 hours to evaporate ethanol, whereby films of TV-β-CyD having adhesion were obtained.
The detaching force on the films of TV-β-CyD and on the films derived from various hydrophilic macromolecules (hydroxypropylcellulose (HPC), hydroxypropyl methylcellulose (HPMC) and polyhydroxyethyl methacrylate (PHEMA)) was measured using a probe tack tester (produced by Rigaku Kogyo Co.). The films of hydrophilic macromolecules were prepared as described with respect to TV-β-CyD.

[3] = system: cutis of the back of female hairless mice; assay: Cutis irritativeness, histology of back skin of hairless mice (Example 2); assay type: in vivo; conditions: 16 hours, light microscopy
Description: There was stuck 150 mg of TV-β-CyD, in the shape of a circle with a diameter of […], on the back of female hairless mice at the age of around 7 weeks (weight: […]), and 16 hours later, the cutis was extirpated. The extirpated cutis was fixed with 20% neutrally-buffered formalin solution and embedded in paraffin according to a usual manner, and tissue sections were prepared using a microtome. These sections were double stained with haematoxylin and Eosine, and observed by a light microscope. Untreated cutis was used as control. Moreover, a commercially available adhesive tape for patch test was applied on the same mice under the same condition, and, thereafter, the cutis tissue of the applied portion was extirpated for comparison.

| Compound | drug release rate, compared with other acylated β-CyDs [1] | adhesion (detaching force), in comparison with hydrophilic macromolecules [2] | peeling of corneum ([3]; 150 mg, compared with commercially available adhesive tape for patch test) | abnormality such as inflammatory cellular infiltration ([3]; other sites (control)) |
| --- | --- | --- | --- | --- |
| CCCC(=O)OC[C@H]1O[C@@H]2O[C@H]3[C@H](OC(=O)CCC)[C@@H](OC(=O)CCC)[C@@H](O[C@H]4[C@H](OC(=O)CCC)[C@@H](OC(=O)CCC)[C@@H](O[C@H]5[C@H](OC(=O)CCC)[C@@H](OC(=O)CCC)[C@@H](O[C@H]6[C@H](OC(=O)CCC)[C@@H](OC(=O)CCC)[C@@H](O[C@H]7[C@H](OC(=O)CCC)[C@@H](OC(=O)CCC)[C@@H](O[C@H]8[C@H](OC(=O)CCC)[C@@H](OC(=O)CCC)[C@@H](O[C@H]1[C@H](OC(=O)CCC)[C@H]2OC(=O)CCC)O[C@@H]8COC(=O)CCC)O[C@@H]7COC(=O)CCC)O[C@@H]6COC(=O)CCC)O[C@@H]5COC(=O)CCC)O[C@@H]4COC(=O)CCC)O[C@@H]3COC(=O)CCC [TB-β-CyD, perbutanoyl-β-cyclodextrin] | remarkably retards the drug release rate |  |  |  |
| CCCCC(=O)OC[C@H]1O[C@@H]2O[C@H]3[C@H](OC(=O)CCCC)[C@@H](OC(=O)CCCC)[C@@H](O[C@H]4[C@H](OC(=O)CCCC)[C@@H](OC(=O)CCCC)[C@@H](O[C@H]5[C@H](OC(=O)CCCC)[C@@H](OC(=O)CCCC)[C@@H](O[C@H]6[C@H](OC(=O)CCCC)[C@@H](OC(=O)CCCC)[C@@H](O[C@H]7[C@H](OC(=O)CCCC)[C@@H](OC(=O)CCCC)[C@@H](O[C@H]8[C@H](OC(=O)CCCC)[C@@H](OC(=O)CCCC)[C@@H](O[C@H]1[C@H](OC(=O)CCCC)[C@H]2OC(=O)CCCC)O[C@@H]8COC(=O)CCCC)O[C@@H]7COC(=O)CCCC)O[C@@H]6COC(=O)CCCC)O[C@@H]5COC(=O)CCCC)O[C@@H]4COC(=O)CCCC)O[C@@H]3COC(=O)CCCC [TV-β-CyD, Pervaleryl-β-cyclodextrin] |  | strongest in adhesion | peeling of corneum in the same degree as in the case of the commercially available adhesive tape | no abnormality such as inflammatory cellular infiltration |
